Assay [1] addresses TACE (TNF-alpha converting enzyme, ADAM-17) (Homo sapiens, UniProt P78536). Nature of the assay: In vitro metalloprotease inhibition, TACE. It counts as biochemical. The source says:
(§1) Blank cells indicate lack of data only.

The next assay addresses MMP-3 (Stromelysin-1) (Homo sapiens, UniProt P08254). Kind of assay: In vitro metalloprotease inhibition, MMP-3. It counts as biochemical.
Source text: as §1

For another assay, the target named is T1, ADAM-10 (UniProt O14672).
T1 sequence (O14672 1-748): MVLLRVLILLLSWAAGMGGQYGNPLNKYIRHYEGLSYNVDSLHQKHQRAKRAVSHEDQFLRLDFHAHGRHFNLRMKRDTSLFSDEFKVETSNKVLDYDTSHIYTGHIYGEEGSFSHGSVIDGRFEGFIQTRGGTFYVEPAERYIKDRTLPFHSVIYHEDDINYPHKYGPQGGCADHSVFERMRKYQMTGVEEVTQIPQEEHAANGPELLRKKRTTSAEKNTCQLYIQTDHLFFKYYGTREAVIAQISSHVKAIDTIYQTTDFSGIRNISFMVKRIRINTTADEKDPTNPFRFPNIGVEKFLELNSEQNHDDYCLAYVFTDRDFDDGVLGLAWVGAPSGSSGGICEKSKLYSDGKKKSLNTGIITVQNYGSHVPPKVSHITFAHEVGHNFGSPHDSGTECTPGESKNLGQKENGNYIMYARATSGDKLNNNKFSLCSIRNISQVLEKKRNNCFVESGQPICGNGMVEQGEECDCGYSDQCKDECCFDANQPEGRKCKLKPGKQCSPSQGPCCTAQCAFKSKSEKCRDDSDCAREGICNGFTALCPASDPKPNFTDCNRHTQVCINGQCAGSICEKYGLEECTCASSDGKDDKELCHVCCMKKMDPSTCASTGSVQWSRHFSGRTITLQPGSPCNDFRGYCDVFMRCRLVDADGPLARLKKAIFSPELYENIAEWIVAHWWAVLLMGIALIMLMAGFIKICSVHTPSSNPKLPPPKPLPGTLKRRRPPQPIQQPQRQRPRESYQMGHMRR
Kind of assay: ADAM-10 enzyme assay, cleavage of a fluorogenic 10-residue peptide.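 Further: mouse or human ADAM-10 at 5 nM active enzyme, pH 8.0 HEPES buffer with CaCl2 and NP-40, compounds titrated 100 µM down to 0.5 nM, fluorescence read after 16 h at room temperature.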 It counts as biochemical, mouse or human (mADAM-10 or hADAM-10). The note with it: in vitro.

For assay [2], the target named is T2, MMP-1 (Fibroblast collagenase) (Homo sapiens, UniProt P03956).
T2 sequence (P03956 100-469): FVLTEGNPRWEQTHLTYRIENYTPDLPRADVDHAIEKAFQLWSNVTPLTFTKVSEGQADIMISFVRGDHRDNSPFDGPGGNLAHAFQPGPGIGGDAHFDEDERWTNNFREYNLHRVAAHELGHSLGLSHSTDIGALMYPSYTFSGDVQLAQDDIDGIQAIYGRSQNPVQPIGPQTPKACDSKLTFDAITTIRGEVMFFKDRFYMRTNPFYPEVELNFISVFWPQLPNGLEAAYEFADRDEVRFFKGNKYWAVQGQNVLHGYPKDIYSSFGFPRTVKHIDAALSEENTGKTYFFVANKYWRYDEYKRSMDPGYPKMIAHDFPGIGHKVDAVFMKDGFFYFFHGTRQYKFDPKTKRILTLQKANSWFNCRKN
Nature of the assay: In vitro metalloprotease inhibition, MMP-1. It counts as biochemical.
Source text: as §1

Assay [3] addresses T3, MMP-2 (72 kDa gelatinase, gelatinase A) (Homo sapiens, UniProt P08253).
T3 sequence (P08253 110-660): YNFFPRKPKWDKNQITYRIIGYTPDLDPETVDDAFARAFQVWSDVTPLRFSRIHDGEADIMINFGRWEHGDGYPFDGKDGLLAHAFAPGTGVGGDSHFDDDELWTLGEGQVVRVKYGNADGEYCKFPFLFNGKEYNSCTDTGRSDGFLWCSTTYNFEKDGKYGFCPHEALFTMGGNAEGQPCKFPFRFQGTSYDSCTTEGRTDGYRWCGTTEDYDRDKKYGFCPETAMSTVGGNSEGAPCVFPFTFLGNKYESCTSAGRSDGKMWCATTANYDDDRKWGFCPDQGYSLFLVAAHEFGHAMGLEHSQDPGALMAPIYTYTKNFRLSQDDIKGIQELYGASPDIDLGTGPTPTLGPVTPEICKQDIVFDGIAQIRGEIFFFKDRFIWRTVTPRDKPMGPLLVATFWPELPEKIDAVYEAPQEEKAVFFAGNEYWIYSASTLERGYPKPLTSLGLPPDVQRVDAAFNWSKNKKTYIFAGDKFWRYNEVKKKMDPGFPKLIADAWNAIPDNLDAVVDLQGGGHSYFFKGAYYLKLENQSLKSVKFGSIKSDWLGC
Kind of assay: In vitro metalloprotease inhibition, MMP-2. It counts as biochemical.

In the next assay the target is MMP-13 (collagenase-3) (Homo sapiens, UniProt P45452). Nature of the assay: In vitro metalloprotease inhibition, MMP-13. The assay is classed as biochemical.
The target in assay [4] is MMP-8 (Neutrophil collagenase) (Homo sapiens, UniProt P22894). Nature of the assay: In vitro metalloprotease inhibition, MMP-8. It counts as biochemical.
MMP-8 (Neutrophil collagenase), sequence (P22894 101-467, species assumed): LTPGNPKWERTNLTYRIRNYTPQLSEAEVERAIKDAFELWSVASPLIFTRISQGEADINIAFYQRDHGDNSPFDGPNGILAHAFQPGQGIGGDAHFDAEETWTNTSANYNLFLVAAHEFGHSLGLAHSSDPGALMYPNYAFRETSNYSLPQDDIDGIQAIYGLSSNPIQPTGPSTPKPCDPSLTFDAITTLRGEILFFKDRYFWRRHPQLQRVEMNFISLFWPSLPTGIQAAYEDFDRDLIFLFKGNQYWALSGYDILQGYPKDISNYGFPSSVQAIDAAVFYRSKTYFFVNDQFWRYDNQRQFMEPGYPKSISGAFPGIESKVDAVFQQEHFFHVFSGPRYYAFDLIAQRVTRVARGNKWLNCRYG
For assay [5], the target named is MMP-9 (92 kDa gelatinase, gelatinase B) (Homo sapiens, UniProt P14780). Kind of assay: In vitro metalloprotease inhibition, MMP-9. The assay is classed as biochemical.
MMP-9 (92 kDa gelatinase, gelatinase B), sequence (P14780 94-707, species assumed): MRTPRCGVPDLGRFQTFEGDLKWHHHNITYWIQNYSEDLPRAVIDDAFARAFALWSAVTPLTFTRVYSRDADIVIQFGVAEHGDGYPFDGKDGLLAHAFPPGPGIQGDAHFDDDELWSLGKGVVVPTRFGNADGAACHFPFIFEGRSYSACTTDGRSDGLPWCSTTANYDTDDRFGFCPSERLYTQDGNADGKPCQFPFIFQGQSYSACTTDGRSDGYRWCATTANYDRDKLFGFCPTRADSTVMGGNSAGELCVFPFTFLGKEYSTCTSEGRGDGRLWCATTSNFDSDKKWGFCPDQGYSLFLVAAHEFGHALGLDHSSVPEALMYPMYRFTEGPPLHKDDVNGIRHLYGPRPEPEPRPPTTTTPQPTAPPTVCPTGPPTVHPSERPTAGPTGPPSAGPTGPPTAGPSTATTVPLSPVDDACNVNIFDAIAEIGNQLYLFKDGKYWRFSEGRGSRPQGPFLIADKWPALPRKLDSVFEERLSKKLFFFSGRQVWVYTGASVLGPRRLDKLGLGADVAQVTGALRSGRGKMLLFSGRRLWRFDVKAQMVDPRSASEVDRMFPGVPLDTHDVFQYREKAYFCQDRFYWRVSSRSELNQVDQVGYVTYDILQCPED

pIC50: −log10 of the molar value.

MMP-3 (Stromelysin-1), sequence (P08254 100-477, species assumed): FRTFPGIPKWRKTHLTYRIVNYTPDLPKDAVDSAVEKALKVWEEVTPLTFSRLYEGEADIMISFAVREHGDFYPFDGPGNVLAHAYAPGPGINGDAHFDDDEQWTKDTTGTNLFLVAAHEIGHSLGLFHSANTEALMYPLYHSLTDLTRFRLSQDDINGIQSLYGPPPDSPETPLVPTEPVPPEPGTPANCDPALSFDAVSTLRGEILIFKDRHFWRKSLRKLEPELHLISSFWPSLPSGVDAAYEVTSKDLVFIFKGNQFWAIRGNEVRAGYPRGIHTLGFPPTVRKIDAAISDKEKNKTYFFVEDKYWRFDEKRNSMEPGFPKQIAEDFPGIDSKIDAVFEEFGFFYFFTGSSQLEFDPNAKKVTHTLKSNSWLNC
TACE (TNF-alpha converting enzyme, ADAM-17), sequence (P78536 215-824): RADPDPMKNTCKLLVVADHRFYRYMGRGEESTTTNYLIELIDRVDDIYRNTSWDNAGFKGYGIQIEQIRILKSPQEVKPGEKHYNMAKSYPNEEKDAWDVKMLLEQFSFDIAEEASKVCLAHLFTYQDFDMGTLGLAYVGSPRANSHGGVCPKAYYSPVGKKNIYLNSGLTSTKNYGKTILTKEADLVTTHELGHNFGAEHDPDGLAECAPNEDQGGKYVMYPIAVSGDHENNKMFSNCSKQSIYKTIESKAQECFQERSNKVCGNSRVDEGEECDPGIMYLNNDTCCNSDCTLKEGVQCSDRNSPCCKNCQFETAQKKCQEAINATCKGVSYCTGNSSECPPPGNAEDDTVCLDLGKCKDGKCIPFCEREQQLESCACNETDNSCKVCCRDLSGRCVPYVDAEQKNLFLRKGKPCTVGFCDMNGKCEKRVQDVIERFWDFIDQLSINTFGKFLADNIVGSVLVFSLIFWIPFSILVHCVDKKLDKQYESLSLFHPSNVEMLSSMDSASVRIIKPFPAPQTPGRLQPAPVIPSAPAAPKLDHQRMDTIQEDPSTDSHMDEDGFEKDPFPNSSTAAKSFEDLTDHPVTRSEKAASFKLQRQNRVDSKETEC

Consider `O=C(NO)[C@H]1CN(C(=O)C(=O)N2CCOCC2)CCN1S(=O)(=O)c1cc(F)c(Oc2ccc(Cl)cc2)c(F)c1` [Entry 31], for which the pIC50 (in general, −log10 of the IC50, conventionally taken in molar units) in assay [1] is 6.00 to 7.30; on MMP-3 (Stromelysin-1) it was 6.00 to 7.30; against ADAM-10, > 7.30; in assay [2] it was 4.70 to 6.00; in assay [3] it was > 7.30; on MMP-13 (collagenase-3), > 7.30.

Consider `CN(C)CCS(=O)(=O)N1CCN(S(=O)(=O)c2cc(F)c(Oc3ccc(Cl)cc3)c(F)c2)[C@@H](C(=O)NO)C1` [Entry 54], for which the pIC50 in assay [1] is > 7.30; against MMP-3 (Stromelysin-1), > 7.30; against ADAM-10, > 7.30; in assay [2] it was 6.00 to 7.30; in assay [3] it was > 7.30; on MMP-13 (collagenase-3), > 7.30.

Turning to `O=C(NO)[C@H]1CN(S(=O)(=O)NC(=O)N2CCCCC2)CCN1S(=O)(=O)c1cc(F)c(Oc2ccc(Cl)cc2)c(F)c1` [Entry 37], the pIC50 in assay [1] is 6.00 to 7.30; on MMP-3 (Stromelysin-1) it was > 7.30; against ADAM-10 it was > 7.30; in assay [2], 4.70 to 6.00; in assay [3] it was > 7.30; against MMP-13 (collagenase-3) it was > 7.30.

As to `O=C(NO)[C@H]1CN(C(=O)N2CCOCC2)CCN1S(=O)(=O)c1cc(F)c(Oc2ccc(Cl)cc2)c(F)c1` [Entry 30], the pIC50 in assay [1] was 6.00 to 7.30; in assay [4], > 7.30; against MMP-3 (Stromelysin-1), 6.00 to 7.30; against ADAM-10 it was > 7.30; in assay [2], 4.70 to 6.00; in assay [3], > 7.30. For the same compound, the pIC50 against MMP-13 (collagenase-3) was > 7.30; in assay [5], 6.00 to 7.30.

As for `O=C(NO)[C@H]1CN(S(=O)(=O)Cc2ccncc2)CCN1S(=O)(=O)c1cc(F)c(Oc2ccc(Cl)cc2)c(F)c1` [Entry 34], the pIC50 in assay [1] was > 7.30; on MMP-3 (Stromelysin-1), 6.00 to 7.30; against ADAM-10, > 7.30; in assay [2] it was 4.70 to 6.00; in assay [3] it was > 7.30; against MMP-13 (collagenase-3) it was > 7.30.

For the compound `O=C(NO)[C@H]1CN(S(=O)(=O)c2cccnc2O)CCN1S(=O)(=O)c1cc(F)c(Oc2ccc(Cl)cc2)c(F)c1` [Entry 45], the pIC50 in assay [1] is 6.00 to 7.30; against MMP-3 (Stromelysin-1) it was 6.00 to 7.30; at ADAM-10, > 7.30; in assay [2], 4.70 to 6.00; in assay [3] it was > 7.30; on MMP-13 (collagenase-3), > 7.30.

`O=C(NO)[C@H]1CN(C(=O)c2cccnc2)CCN1S(=O)(=O)c1cc(F)c(Oc2ccc(Cl)cc2)c(F)c1` [Entry 59]: the pIC50 in assay [1] is 6.00 to 7.30; against MMP-3 (Stromelysin-1), 6.00 to 7.30; against ADAM-10 it was > 7.30; in assay [2], 4.70 to 6.00; in assay [3] it was > 7.30; against MMP-13 (collagenase-3), > 7.30.

As to `O=C(NO)[C@H]1CN(S(=O)(=O)NC(=O)N2CCOCC2)CCN1S(=O)(=O)c1cc(F)c(Oc2ccc(Cl)cc2)c(F)c1` [Entry 38], the negative logarithm of the IC50 (pIC50) in assay [1] was 6.00 to 7.30; on MMP-3 (Stromelysin-1) it was > 7.30; against ADAM-10, > 7.30; in assay [2] it was 4.70 to 6.00; in assay [3] it was > 7.30; against MMP-13 (collagenase-3) it was > 7.30.

The record behind these values is patent US7629341B2, “Human ADAM-10 inhibitors” (Symphony Evolution, Inc., priority 2003, dated 2009).
